This assay relates to 435261-313-R-J1-PDC tumor spheroid viability. Kind of assay: Anticancer human tumor 435261-313-R-J1-PDC patient-derived colon adenocarcinoma cell line growth inhibition [PI3K]. The conditions noted are these: spheroids with HUVEC and MSC; for viability, T/C: stronger effect = lower value; for pIC50: curve of first compound. The source says: Combinatorial screen of targeted agents with the PI3K inhibitors inavolisib, alpelisib, duvelisib, and copanlisib in multi-cell type tumor spheroids
A high-throughput screen of multi-cell type tumor spheroids was designed to identify active combinations of targeted small molecules and PI3K pathway inhibitors. Complex spheroids include a stromal component modeled by human endothelial cells (HUVEC) and fibroblasts modeled by human mesenchymal stem cells (MSCs). The concentration ranges selected for each drug and investigational agent were based upon clinically achievable concentrations if the clinical Cmax of the agent was known.
Compounds. The drugs and investigational agents: inavolisib (NSC800729), alpelisib (NSC765974), duvelisib (NSC772469), copanlisib (NSC816437), ipatasertib (NSC767898), afuresertib (NSC778305), talazoparib (NSC767125), sapanisertib (NSC764658), selumetinib (NSC741078), tovorafenib (DAY101, NSC766906), vemurafenib (NSC761431), ravoxertinib (NSC781343), sotorasib (NSC818433), MRTX1133 (NSC 836407), abemaciclib (NSC 768073), palbociclib (NSC758247), venetoclax (NSC 766270), SY5609 (NSC837396), enzalutamide (NSC755605), and darolutamide (NSC825331), were obtained from the National Cancer Institute (NCI) Developmental Therapeutics Program Chemical Repository. The FDA-approved anticancer drug set is available from the NCI Developmental Therapeutics Program. […] The stock solutions were prepared in dimethyl sulfoxide (DMSO, Sigma-Aldrich, St. Louis, MO, cat. D2650) at 800-fold the tested concentration and stored at -70 degrees C prior to their use. All drugs and investigational agents were tested over a range starting from a high concentration at or near the clinical Cmax and decreasing in half-log increments. If the clinical Cmax for an agent had not been determined, the highest concentration tested was 10 microM.
Cell Culture. All cells were maintained in an incubator at 37 degrees C and 5% CO2 with 95% humidity. The PDC lines were cultured according to standard operating procedures established by the NCI PDMR (https://pdmr.cancer.gov/sops/default.htm). All PDCs were thawed and cultured in Matrigel-coated flasks prepared with a working solution of 1X Ham's F-12 nutrient mix, without supplementation (Invitrogen, Waltham, MA, cat. 11765054), 100 U/mL penicillin-streptomycin (Invitrogen, cat. 15140122), and 2.5% Matrigel (Corning Inc., Corning, NY, cat. 354248) for the first three passages. The 354836-022-R-J1-PDC, 475296-252-R-J1-PDC, and 997726-040-R-J2-PDC lines were cultured in 6A media, which includes advanced DMEM/F-12 (Thermo Fisher Scientific, cat. 12634028), 10 mM HEPES (Thermo Fisher Scientific, cat. 15630080), 1X GlutaMAX supplement (Thermo Fisher Scientific, cat. 35050061), 0.1 mg/mL primocin (InvivoGen, San Diego, CA, cat. ant-pm-2), 10% defined fetal bovine serum, heat inactivated (HyClone Laboratories Inc., Logan, UT, cat. SH30070.03HI), 50% L-WRN conditioned media (ATCC, cat. CRL-3276), 1.25 mM N-Acetyl-L-cysteine (Sigma-Aldrich, cat. A9165), 10 mM nicotinamide (Sigma-Aldrich, cat. N0636), 1X B-27 supplement (Thermo Fisher Scientific, cat. 17504044), 1X N-2 supplement (Thermo Fisher Scientific, cat. 17502048), and 10 microM Y-27632 dihydrochloride (Tocris Bioscience, Bristol, United Kingdom, cat. 1254). The 624824-186-R-J2-PDC line was cultured in 6C/Colon 1B media, which includes all 6A media components plus 50 ng/mL human EGF recombinant protein (Thermo Fisher Scientific, cat. PHG0311). […]

Experimental findings from PubChem BioAssay AID1963976 (Molecular Pharmacology Branch, DTP, NCI, 2024) are described below.

pIC50: −log10 of the molar value.
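Further: spheroids exposed to compounds for 7 days.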

A word on the viability, T/C: it is the result in the treated group divided by that in the control group, in per cent. As usually defined, the IC50 is the midpoint of a concentration-inhibition curve. For the compound `Cc1nc(NC(=O)N2CCCC2C(N)=O)sc1-c1ccnc(C(C)(C)C(F)(F)F)c1` (stereo not drawn), the viability, T/C runs as follows: (compound 0.1 µM) 82.1% [middle of 6 runs]; (compound 0.316 µM) 64.4% [middle of 6 runs]; (compound 1 µM) 27.3% [middle of 6 runs]; (compound 3.16 µM) 17.2% [middle of 6 runs]; (compound 10 µM) 7% [middle of 6 runs]. Moreover, the IC50 (compound alone, run of 06/12/2023) is 447 nM [middle of 6 runs].
By pIC50 is commonly meant the negative decadic logarithm of the IC50, by convention in mol/L. As for `C=CC(=O)N1CCN(c2nc(=O)n(-c3c(C)ccnc3C(C)C)c3nc(-c4c(O)cccc4F)c(F)cc23)C(C)C1` (stereo not drawn) + Cc1nc(NC(=O)N2CCCC2C(N)=O)sc1-c1ccnc(C(C)(C)C(F)(F)F)c1, the negative logarithm of the IC50 (pIC50) by setting is: (second compound 0.0316 µM) under 5.00; (second compound 0.1 µM) under 5.00; (second compound 0.316 µM) under 5.00; (second compound 1 µM) over 7.50; (second compound 3.16 µM) over 7.50; (second compound 10 µM) over 7.50. Further, the viability, T/C (second compound 0.0316 µM, first compound 0.0316 µM) was 70.5%; the viability, T/C (second compound 0.0316 µM, first compound 0.1 µM) was 84%; the viability, T/C (second compound 0.0316 µM, first compound 0.316 µM) was 80.8%; the viability, T/C (second compound 0.0316 µM, first compound 1 µM) was 91.5%; the viability, T/C (second compound 0.0316 µM, first compound 3.16 µM) was 112%; the viability, T/C (second compound 0.0316 µM, first compound 10 µM) was 121%. Besides, the viability, T/C was 71.5% (second compound 0.1 µM, first compound 0.0316 µM); 71.3% (second compound 0.1 µM, first compound 0.1 µM); 73.5% (second compound 0.1 µM, first compound 0.316 µM); 75% (second compound 0.1 µM, first compound 1 µM); 129% (second compound 0.1 µM, first compound 3.16 µM); 119% (second compound 0.1 µM, first compound 10 µM). The viability, T/C was 49.5% (second compound 0.316 µM, first compound 0.0316 µM); 52.4% (second compound 0.316 µM, first compound 0.1 µM); 56.9% (second compound 0.316 µM, first compound 0.316 µM); 58.4% (second compound 0.316 µM, first compound 1 µM); 77.1% (second compound 0.316 µM, first compound 3.16 µM); 78.9% (second compound 0.316 µM, first compound 10 µM). The viability, T/C reads like this: (second compound 1 µM, first compound 0.0316 µM) 35.1%; (second compound 1 µM, first compound 0.1 µM) 25.1%; (second compound 1 µM, first compound 0.316 µM) 27.6%; (second compound 1 µM, first compound 1 µM) 39.6%; (second compound 1 µM, first compound 3.16 µM) 36.6%; (second compound 1 µM, first compound 10 µM) 54.8%. Also, the viability, T/C is 15.3% (second compound 3.16 µM, first compound 0.0316 µM); 19.4% (second compound 3.16 µM, first compound 0.1 µM); 17.9% (second compound 3.16 µM, first compound 0.316 µM); 23% (second compound 3.16 µM, first compound 1 µM); 24.3% (second compound 3.16 µM, first compound 3.16 µM); 18.6% (second compound 3.16 µM, first compound 10 µM). For the same compound, the viability, T/C is, setting by setting: (second compound 10 µM, first compound 0.0316 µM) 9.68%; (second compound 10 µM, first compound 0.1 µM) 9.35%; (second compound 10 µM, first compound 0.316 µM) 8.96%; (second compound 10 µM, first compound 1 µM) 9.4%; (second compound 10 µM, first compound 3.16 µM) 9.55%; (second compound 10 µM, first compound 10 µM) 6.21%.
